Test results: PubChem BioAssay (NCI)
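GI50 marks 50% less growth. TGI marks complete inhibition of growth.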

Experiments:
Test in all cases: NCI tumour cell line growth inhibition, 384-well format; in the data active means GI50 below about 0.43 µM; inactive means the rest
[1] = system: NCI-H522 lung
[2] = system: UO-31 renal
[3] = system: PC-3 prostate
[4] = system: SF-268 CNS
[5] = system: A498 renal
[6] = system: HS 578T breast
[7] = system: HCC-2998 colon
[8] = system: NCI-H226 lung
[9] = system: OVCAR-3 ovarian
[10] = system: 786-0 renal
[11] = system: HT29 colon
[12] = system: MDA-MB-435 melanoma
[13] = system: RPMI-8226 leukemia
[14] = system: SNB-19 CNS
[15] = system: OVCAR-4 ovarian
[16] = system: CAKI-1 renal
[17] = system: SF-539 CNS
[18] = system: EKVX NSCLC
[19] = system: MOLT-4 leukemia
[20] = system: HCT-15 colon
[21] = system: OVCAR-5 ovarian
[22] = system: HOP-92 NSCLC
[23] = system: NCI/ADR-RES ovarian
[24] = system: LOX IMVI melanoma
[25] = system: CCRF-CEM leukemia
[26] = system: NCI-H322M lung
[27] = system: SK-MEL-5 melanoma
[28] = system: UACC-257 melanoma
[29] = system: HOP-62 NSCLC
[30] = system: COLO 205 colon
[31] = system: K-562 leukemia
[32] = system: HL-60(TB) leukemia
[33] = system: MCF7 breast
[34] = system: MALME-3M melanoma
[35] = system: M14 melanoma
[36] = system: SK-OV-3 ovarian
[37] = system: NCI-H23 lung
[38] = system: UACC-62 melanoma
[39] = system: SNB-75 CNS
[40] = system: SW-620 colon
[41] = system: IGROV1 ovarian
[42] = system: DU-145 prostate
[43] = system: SN12C renal
[44] = system: SK-MEL-28 melanoma
[45] = system: RXF 393 renal
[46] = system: T-47D breast
[47] = system: NCI-H460 NSCLC
[48] = system: BT-549 breast
[49] = system: MDA-MB-231 breast
[50] = system: ACHN renal
[51] = system: KM12 colon
[52] = system: SF-295 CNS
[53] = system: TK-10 renal
[54] = system: MDA-MB-468 breast
[55] = system: OVCAR-8 ovarian
[56] = system: A549 NSCLC
[57] = system: SR leukemia

N#Cc1cc(F)cc(Oc2ccc(S(=O)(=O)C(F)F)c3c2CC(F)(F)[C@H]3O)c1
90.6 µM: TGI [42]
inactive: GI50 [1] 19.8 µM | GI50 [2] 36.4 µM | GI50 [3] 29.9 µM | GI50 [4] 48.6 µM | GI50 [5] 19.8 µM | GI50 [6] 20 µM | GI50 [7] 41.4 µM | GI50 [8] 22.7 µM | GI50 [9] 25.1 µM | GI50 [10] 31.6 µM | GI50 [11] 43.9 µM | GI50 [12] 48.4 µM | GI50 [13] 11.8 µM | GI50 [14] 48.5 µM | GI50 [15] 14.8 µM | GI50 [16] 38.8 µM | GI50 [17] 33.6 µM | GI50 [18] 27.3 µM | GI50 [19] 13.9 µM | GI50 [20] 27.8 µM | GI50 [21] 56.4 µM | GI50 [22] 16.3 µM | GI50 [23] 16.1 µM | GI50 [24] 20 µM | GI50 [25] 11.6 µM | GI50 [26] 39.4 µM | GI50 [27] 15.1 µM | GI50 [28] 19.2 µM | GI50 [29] 30 µM | GI50 [30] 38.7 µM | GI50 [31] 18.3 µM | GI50 [32] 18.4 µM | GI50 [33] 19.6 µM | GI50 [34] 28.8 µM | GI50 [35] 33.7 µM | GI50 [36] 26.2 µM | GI50 [37] 14.2 µM | GI50 [38] 34.9 µM | GI50 [39] 34.4 µM | GI50 [40] 63.5 µM | GI50 [41] 41.6 µM | GI50 [42] 26.2 µM | GI50 [43] 32.7 µM | GI50 [44] 53.3 µM | GI50 [45] 21.3 µM | GI50 [46] 14.9 µM | GI50 [47] 18.1 µM | GI50 [48] 21.1 µM | GI50 [49] 25.4 µM | GI50 [50] 33.2 µM | GI50 [51] 34.5 µM | GI50 [52] 30.2 µM | GI50 [53] 38.4 µM | GI50 [54] 8.94 µM | GI50 [55] 28.5 µM | GI50 [56] 26.9 µM | GI50 [57] 15.7 µM
29.4 µM: TGI [27]
61.2 µM: TGI [1]
67.4 µM: TGI [46]
47.2 µM: TGI [48]
53.2 µM: TGI [15]
28.9 µM: TGI [13]
25.8 µM: TGI [25]
33.9 µM: TGI [47]
30.5 µM: TGI [57]
93.6 µM: TGI [34]
52 µM: TGI [22] | TGI [23]
68.5 µM: TGI [9]
27.1 µM: TGI [19]
86.3 µM: TGI [56]
43.1 µM: TGI [24]
55.2 µM: TGI [33]
48.7 µM: TGI [28]
97.3 µM: TGI [18]
71.8 µM: TGI [8]
> 100 µM: TGI [2] | TGI [3] | TGI [4] | TGI [7] | TGI [10] | TGI [11] | TGI [12] | TGI [14] | TGI [16] | TGI [17] | TGI [20] | TGI [21] | TGI [26] | TGI [29] | TGI [30] | TGI [31] | TGI [35] | TGI [36] | TGI [38] | TGI [39] | TGI [40] | TGI [41] | TGI [43] | TGI [44] | TGI [49] | TGI [50] | TGI [51] | TGI [52] | TGI [53] | TGI [55]
33 µM: TGI [32]
69.8 µM: TGI [6]
26 µM: TGI [54]
73.8 µM: TGI [45]
48.5 µM: TGI [37]
44 µM: TGI [5]
